According to PubChem BioAssay (NCI):
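Growth conditions: 96-well plates. Treatment: test compound, 48 hours, 5 concentrations. Analysis: linear interpolation between bracketing concentrations; unreached endpoints set to highest concentration. The concentration for full growth arrest is given as TGI.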

Assays:
Assay in all cases: growth of human tumour cells (NCI), 48 h
HCT-116 colon = test system: HCT-116 colon
HCT-15 colon = test system: HCT-15 colon
KM12 colon = test system: KM12 colon
MOLT-4 leukemia = test system: MOLT-4 leukemia
SR leukemia = test system: SR leukemia
RXF 393 renal = test system: RXF 393 renal
MDA-MB-231 breast = test system: MDA-MB-231 breast
SN12C renal = test system: SN12C renal
CAKI-1 renal = test system: CAKI-1 renal
HS 578T breast = test system: HS 578T breast
CCRF-CEM leukemia = test system: CCRF-CEM leukemia
LOX IMVI melanoma = test system: LOX IMVI melanoma
UO-31 renal = test system: UO-31 renal
HT29 colon = test system: HT29 colon
MDA-MB-435 = test system: MDA-MB-435
T-47D breast = test system: T-47D breast
EKVX NSCLC = test system: EKVX NSCLC
MALME-3M melanoma = test system: MALME-3M melanoma
SF-295 CNS = test system: SF-295 CNS
SF-268 CNS = test system: SF-268 CNS
HCC-2998 colon = test system: HCC-2998 colon
COLO 205 colon = test system: COLO 205 colon
SNB-19 CNS = test system: SNB-19 CNS
TK-10 renal = test system: TK-10 renal
UACC-62 melanoma = test system: UACC-62 melanoma
NCI-H460 lung = test system: NCI-H460 lung
BT-549 breast = test system: BT-549 breast
SF-539 CNS = test system: SF-539 CNS
OVCAR-8 ovarian = test system: OVCAR-8 ovarian
SK-MEL-28 melanoma = test system: SK-MEL-28 melanoma
SNB-75 CNS = test system: SNB-75 CNS
UACC-257 melanoma = test system: UACC-257 melanoma
MCF7 breast = test system: MCF7 breast
MDA-N = test system: MDA-N
U251 CNS = test system: U251 CNS
DU-145 prostate = test system: DU-145 prostate
OVCAR-4 ovarian = test system: OVCAR-4 ovarian
IGROV1 ovarian = test system: IGROV1 ovarian
786-0 renal = test system: 786-0 renal
SK-MEL-5 melanoma = test system: SK-MEL-5 melanoma
HOP-92 NSCLC = test system: HOP-92 NSCLC
NCI-H23 lung = test system: NCI-H23 lung
NCI-H226 lung = test system: NCI-H226 lung
SW-620 colon = test system: SW-620 colon
A549 NSCLC = test system: A549 NSCLC
NCI/ADR-RES ovarian = test system: NCI/ADR-RES ovarian
HOP-62 NSCLC = test system: HOP-62 NSCLC
SK-MEL-2 melanoma = test system: SK-MEL-2 melanoma
PC-3 prostate = test system: PC-3 prostate
NCI-H522 lung = test system: NCI-H522 lung
SK-OV-3 ovarian = test system: SK-OV-3 ovarian
RPMI-8226 leukemia = test system: RPMI-8226 leukemia
OVCAR-5 ovarian = test system: OVCAR-5 ovarian
M14 melanoma = test system: M14 melanoma
ACHN renal = test system: ACHN renal
A498 renal = test system: A498 renal
K-562 leukemia = test system: K-562 leukemia
OVCAR-3 ovarian = test system: OVCAR-3 ovarian

Structure (SMILES): CCOC(=O)c1nnn(CCCCO)c1C(=O)OCC
- TGI (HCT-116 colon): > 100 µM
- TGI (HCT-15 colon): > 100 µM
- TGI (KM12 colon): > 100 µM
- TGI (MOLT-4 leukemia): > 100 µM
- TGI (SR leukemia): > 100 µM
- TGI (RXF 393 renal): > 100 µM
- TGI (MDA-MB-231 breast): > 100 µM
- TGI (SN12C renal): > 100 µM
- TGI (CAKI-1 renal): > 100 µM
- TGI (HS 578T breast): > 100 µM
- TGI (CCRF-CEM leukemia): > 100 µM
- TGI (LOX IMVI melanoma): > 100 µM
- TGI (UO-31 renal): > 100 µM
- TGI (HT29 colon): > 100 µM
- TGI (MDA-MB-435): > 100 µM
- TGI (T-47D breast): > 100 µM
- TGI (EKVX NSCLC): > 100 µM
- TGI (MALME-3M melanoma): > 100 µM
- TGI (SF-295 CNS): > 100 µM
- TGI (SF-268 CNS): > 100 µM
- TGI (HCC-2998 colon): > 100 µM
- TGI (COLO 205 colon): > 100 µM
- TGI (SNB-19 CNS): 84.5 µM
- TGI (TK-10 renal): > 100 µM
- TGI (UACC-62 melanoma): > 100 µM
- TGI (NCI-H460 lung): > 100 µM
- TGI (BT-549 breast): > 100 µM
- TGI (SF-539 CNS): > 100 µM
- TGI (OVCAR-8 ovarian): > 100 µM
- TGI (SK-MEL-28 melanoma): > 100 µM
- TGI (SNB-75 CNS): > 100 µM
- TGI (UACC-257 melanoma): > 100 µM
- TGI (MCF7 breast): > 100 µM
- TGI (MDA-N): > 100 µM
- TGI (U251 CNS): > 100 µM
- TGI (DU-145 prostate): > 100 µM
- TGI (OVCAR-4 ovarian): > 100 µM
- TGI (IGROV1 ovarian): > 100 µM
- TGI (786-0 renal): > 100 µM
- TGI (SK-MEL-5 melanoma): > 100 µM
- TGI (HOP-92 NSCLC): > 100 µM
- TGI (NCI-H23 lung): > 100 µM
- TGI (NCI-H226 lung): > 100 µM
- TGI (SW-620 colon): > 100 µM
- TGI (A549 NSCLC): > 100 µM
- TGI (NCI/ADR-RES ovarian): > 100 µM
- TGI (HOP-62 NSCLC): > 100 µM
- TGI (SK-MEL-2 melanoma): > 100 µM
- TGI (PC-3 prostate): > 100 µM

Structure (SMILES): O=C1c2sc(-c3ccc(Cl)cc3)cc2-n2cccc21
- TGI (HCT-116 colon): > 100 µM
- TGI (HCT-15 colon): > 100 µM
- TGI (KM12 colon): > 100 µM
- TGI (NCI-H522 lung): > 100 µM
- TGI (MOLT-4 leukemia): > 100 µM
- TGI (SR leukemia): > 100 µM
- TGI (RXF 393 renal): > 100 µM
- TGI (MDA-MB-231 breast): > 100 µM
- TGI (SN12C renal): > 100 µM
- TGI (SK-OV-3 ovarian): > 100 µM
- TGI (CAKI-1 renal): > 100 µM
- TGI (RPMI-8226 leukemia): > 100 µM
- TGI (HS 578T breast): > 100 µM
- TGI (CCRF-CEM leukemia): > 100 µM
- TGI (LOX IMVI melanoma): > 100 µM
- TGI (UO-31 renal): > 100 µM
- TGI (OVCAR-5 ovarian): > 100 µM
- TGI (HT29 colon): > 100 µM
- TGI (MDA-MB-435): > 100 µM
- TGI (T-47D breast): > 100 µM
- TGI (EKVX NSCLC): > 100 µM
- TGI (MALME-3M melanoma): > 100 µM
- TGI (SF-295 CNS): > 100 µM
- TGI (SF-268 CNS): > 100 µM
- TGI (HCC-2998 colon): > 100 µM
- TGI (COLO 205 colon): > 100 µM
- TGI (M14 melanoma): > 100 µM
- TGI (SNB-19 CNS): > 100 µM
- TGI (TK-10 renal): > 100 µM
- TGI (UACC-62 melanoma): > 100 µM
- TGI (NCI-H460 lung): > 100 µM
- TGI (BT-549 breast): > 100 µM
- TGI (OVCAR-8 ovarian): > 100 µM
- TGI (SK-MEL-28 melanoma): > 100 µM
- TGI (SNB-75 CNS): > 100 µM
- TGI (UACC-257 melanoma): > 100 µM
- TGI (MCF7 breast): > 100 µM
- TGI (MDA-N): > 100 µM
- TGI (ACHN renal): > 100 µM
- TGI (U251 CNS): > 100 µM
- TGI (A498 renal): > 100 µM
- TGI (DU-145 prostate): > 100 µM
- TGI (OVCAR-4 ovarian): > 100 µM
- TGI (IGROV1 ovarian): > 100 µM
- TGI (786-0 renal): > 100 µM
- TGI (SK-MEL-5 melanoma): > 100 µM
- TGI (NCI-H226 lung): > 100 µM
- TGI (SW-620 colon): > 100 µM
- TGI (K-562 leukemia): > 100 µM
- TGI (OVCAR-3 ovarian): > 100 µM
- TGI (A549 NSCLC): > 100 µM
- TGI (NCI/ADR-RES ovarian): > 100 µM
- TGI (HOP-62 NSCLC): > 100 µM
- TGI (SK-MEL-2 melanoma): > 100 µM
- TGI (PC-3 prostate): > 100 µM
